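These data come from cells grown in 96-well plates and exposed to compound for 48 hours at five concentrations. GI50 marks 50% less growth. TGI is the concentration that stops growth completely.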
What was measured:
Assay in all cases: inhibition of tumour cell growth, NCI panel, 48 h
[1] = system: SK-MEL-2 melanoma
[2] = system: TK-10 renal
[3] = system: M14 melanoma
[4] = system: LOX IMVI melanoma
[5] = system: MOLT-4 leukemia
[6] = system: ACHN renal
[7] = system: MCF7 breast
[8] = system: OVCAR-8 ovarian
[9] = system: SNB-19 CNS
[10] = system: SK-MEL-5 melanoma
[11] = system: HCT-116 colon
[12] = system: RXF 393 renal
[13] = system: SK-MEL-28 melanoma
[14] = system: HOP-62 NSCLC
[15] = system: MDA-MB-435
[16] = system: NCI-H226 lung
[17] = system: DU-145 prostate
[18] = system: CCRF-CEM leukemia
[19] = system: COLO 205 colon
[20] = system: UO-31 renal
[21] = system: NCI-H23 lung
[22] = system: NCI-H460 lung
[23] = system: A549 NSCLC
[24] = system: 786-0 renal
[25] = system: HT29 colon
[26] = system: HCC-2998 colon
[27] = system: UACC-62 melanoma
[28] = system: U251 CNS
[29] = system: OVCAR-4 ovarian
[30] = system: OVCAR-3 ovarian
[31] = system: NCI/ADR-RES ovarian
[32] = system: SNB-75 CNS
[33] = system: SF-295 CNS
[34] = system: SR leukemia
[35] = system: OVCAR-5 ovarian
[36] = system: SN12C renal
[37] = system: RPMI-8226 leukemia
[38] = system: NCI-H522 lung
[39] = system: SF-539 CNS
[40] = system: BT-549 breast
[41] = system: PC-3 prostate
[42] = system: IGROV1 ovarian
[43] = system: K-562 leukemia
[44] = system: A498 renal
[45] = system: HCT-15 colon
[46] = system: SK-OV-3 ovarian
[47] = system: SF-268 CNS
[48] = system: KM12 colon
[49] = system: EKVX NSCLC
[50] = system: HL-60(TB) leukemia
[51] = system: UACC-257 melanoma
[52] = system: SW-620 colon
[53] = system: HOP-92 NSCLC
[54] = system: MDA-MB-231 breast
[55] = system: MALME-3M melanoma
[56] = system: T-47D breast
[57] = system: HS 578T breast

## CCN1CCN(c2nc(C)cc(N(CCCNc3ccnc4cc(Cl)ccc34)Cc3ccco3)n2)CC1
[1]
  GI50: 1.94 µM
  TGI: 3.92 µM
[2]
  GI50: 2.13 µM
  TGI: 4.9 µM
[3]
  GI50: 1.89 µM
  TGI: 3.63 µM
[4]
  GI50: 1.76 µM
  TGI: 3.75 µM
[5]
  GI50: 3.14 µM
  TGI: 16.8 µM
[6]
  GI50: 2.58 µM
  TGI: 6.99 µM
[7]
  GI50: 2.98 µM
  TGI: 14.8 µM
[8]
  GI50: 4.08 µM
  TGI: 19.5 µM
[9]
  GI50: 4.78 µM
  TGI: 17.5 µM
[10]
  GI50: 1.81 µM
  TGI: 3.3 µM
[11]
  GI50: 2.05 µM
  TGI: 10.9 µM
[12]
  GI50: 1.98 µM
  TGI: 4.23 µM
[13]
  GI50: 1.82 µM
  TGI: 3.6 µM
[14]
  GI50: 3.22 µM
  TGI: 14.1 µM
[15]
  GI50: 1.7 µM
  TGI: 3.24 µM
[16]
  GI50: 15.3 µM
  TGI: 29.2 µM
[17]
  GI50: 5.89 µM
  TGI: 19.7 µM
[18]
  GI50: 3.51 µM
  TGI: 12.2 µM
[19]
  GI50: 1.85 µM
  TGI: 3.98 µM
[20]
  GI50: 1.83 µM
  TGI: 4.3 µM
[21]
  GI50: 9.9 µM
  TGI: 27 µM
[22]
  GI50: 3.73 µM
  TGI: 12.9 µM
[23]
  GI50: 4.51 µM
  TGI: 16.5 µM
[24]
  GI50: 1.85 µM
  TGI: 4.15 µM
[25]
  GI50: 2.35 µM
  TGI: 8.72 µM
[26]
  GI50: 2.05 µM
  TGI: 5.89 µM
[27]
  GI50: 1.97 µM
  TGI: 3.97 µM
[28]
  GI50: 2.41 µM
  TGI: 6.26 µM
[29]
  GI50: 3.99 µM
  TGI: 20.7 µM
[30]
  GI50: 4.29 µM
  TGI: 20.3 µM
[31]
  GI50: 4.42 µM
  TGI: 19.7 µM
[32]
  GI50: 1.7 µM
  TGI: 7.55 µM
[33]
  GI50: 1.81 µM
  TGI: 3.63 µM
[34]
  GI50: 2.08 µM
  TGI: 5.73 µM
[35]
  GI50: 7.9 µM
  TGI: 28.4 µM
[36]
  GI50: 5.55 µM
  TGI: 19.5 µM
[37]
  GI50: 2.31 µM
  TGI: 5.77 µM
[38]
  GI50: 3.12 µM
  TGI: 12 µM
[39]
  GI50: 1.75 µM
  TGI: 3.46 µM
[40]
  GI50: 2.03 µM
  TGI: 5.99 µM
[41]
  GI50: 6.87 µM
  TGI: 22 µM
[42]
  GI50: 3.38 µM
  TGI: 15.4 µM
[43]
  GI50: 2.3 µM
  TGI: 10.4 µM
[44]
  GI50: 6.53 µM
  TGI: 49.1 µM
[45]
  GI50: 2.34 µM
  TGI: 11.6 µM
[46]
  GI50: 7.82 µM
  TGI: 30.7 µM
[47]
  GI50: 4.31 µM
  TGI: 20.6 µM
[48]
  GI50: 5.07 µM
  TGI: 19.4 µM
[49]
  GI50: 7.67 µM
  TGI: 25.3 µM
[50]
  GI50: 2.11 µM
  TGI: 5.08 µM
[51]
  GI50: 1.95 µM
  TGI: 3.79 µM
[52]
  GI50: 3.12 µM
  TGI: 13 µM
[53]
  GI50: 2.26 µM
  TGI: 6.72 µM
[54]
  GI50: 3.18 µM
  TGI: 12.4 µM
[55]
  GI50: 1.89 µM
  TGI: 3.67 µM
[56]
  GI50: 1.97 µM
  TGI: 5.55 µM
[57]
  GI50: 2.87 µM
  TGI: 9.97 µM
